Source: publication PMC4774911, “Biochemical Screening of Five Protein Kinases from Plasmodium falciparum against 14,000 Cell-Active Compounds” (PLoS ONE, 2016)
Several values for one entry are separate records, joined by “and”; a condition that tells them apart may be missing. Equal entries are not always repeated.

Experiments:
Test in all cases: biochemical
Set-up in all cases: endogenous in cells; host or cells: K562 cell extract; species or system K562 (extract); replicate k of n = 2 (each experiment ID is one independent experiment; two experiment IDs per compound)
Details in all cases: read-out: KDapp
[1] = target: STK16 (Homo sapiens, UniProt O75716)
[2] = target: BRAF (Homo sapiens, UniProt P15056)
[3] = target: T1, STK17A (Homo sapiens, UniProt Q9UEE5)
T1 sequence (Q9UEE5 1-414): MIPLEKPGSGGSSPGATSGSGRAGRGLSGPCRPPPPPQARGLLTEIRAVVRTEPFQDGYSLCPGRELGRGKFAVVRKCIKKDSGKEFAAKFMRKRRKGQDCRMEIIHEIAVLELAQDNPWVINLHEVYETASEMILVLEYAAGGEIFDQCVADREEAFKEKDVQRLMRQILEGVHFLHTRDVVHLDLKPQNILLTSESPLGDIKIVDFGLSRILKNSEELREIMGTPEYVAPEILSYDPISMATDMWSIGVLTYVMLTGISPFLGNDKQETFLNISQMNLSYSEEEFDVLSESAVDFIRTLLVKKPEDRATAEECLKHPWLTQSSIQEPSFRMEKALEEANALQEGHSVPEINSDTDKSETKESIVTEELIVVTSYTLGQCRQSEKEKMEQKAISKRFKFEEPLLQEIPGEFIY

[4] = target: ZAK (Homo sapiens, UniProt Q9NYL2)
[5] = target: PRKCQ (Homo sapiens, UniProt Q04759)
[6] = target: CSNK2A1 (Homo sapiens, UniProt P68400)
[7] = target: T2, NEK1 (Homo sapiens, UniProt Q96PY6)
T2 sequence (Q96PY6 1-1258): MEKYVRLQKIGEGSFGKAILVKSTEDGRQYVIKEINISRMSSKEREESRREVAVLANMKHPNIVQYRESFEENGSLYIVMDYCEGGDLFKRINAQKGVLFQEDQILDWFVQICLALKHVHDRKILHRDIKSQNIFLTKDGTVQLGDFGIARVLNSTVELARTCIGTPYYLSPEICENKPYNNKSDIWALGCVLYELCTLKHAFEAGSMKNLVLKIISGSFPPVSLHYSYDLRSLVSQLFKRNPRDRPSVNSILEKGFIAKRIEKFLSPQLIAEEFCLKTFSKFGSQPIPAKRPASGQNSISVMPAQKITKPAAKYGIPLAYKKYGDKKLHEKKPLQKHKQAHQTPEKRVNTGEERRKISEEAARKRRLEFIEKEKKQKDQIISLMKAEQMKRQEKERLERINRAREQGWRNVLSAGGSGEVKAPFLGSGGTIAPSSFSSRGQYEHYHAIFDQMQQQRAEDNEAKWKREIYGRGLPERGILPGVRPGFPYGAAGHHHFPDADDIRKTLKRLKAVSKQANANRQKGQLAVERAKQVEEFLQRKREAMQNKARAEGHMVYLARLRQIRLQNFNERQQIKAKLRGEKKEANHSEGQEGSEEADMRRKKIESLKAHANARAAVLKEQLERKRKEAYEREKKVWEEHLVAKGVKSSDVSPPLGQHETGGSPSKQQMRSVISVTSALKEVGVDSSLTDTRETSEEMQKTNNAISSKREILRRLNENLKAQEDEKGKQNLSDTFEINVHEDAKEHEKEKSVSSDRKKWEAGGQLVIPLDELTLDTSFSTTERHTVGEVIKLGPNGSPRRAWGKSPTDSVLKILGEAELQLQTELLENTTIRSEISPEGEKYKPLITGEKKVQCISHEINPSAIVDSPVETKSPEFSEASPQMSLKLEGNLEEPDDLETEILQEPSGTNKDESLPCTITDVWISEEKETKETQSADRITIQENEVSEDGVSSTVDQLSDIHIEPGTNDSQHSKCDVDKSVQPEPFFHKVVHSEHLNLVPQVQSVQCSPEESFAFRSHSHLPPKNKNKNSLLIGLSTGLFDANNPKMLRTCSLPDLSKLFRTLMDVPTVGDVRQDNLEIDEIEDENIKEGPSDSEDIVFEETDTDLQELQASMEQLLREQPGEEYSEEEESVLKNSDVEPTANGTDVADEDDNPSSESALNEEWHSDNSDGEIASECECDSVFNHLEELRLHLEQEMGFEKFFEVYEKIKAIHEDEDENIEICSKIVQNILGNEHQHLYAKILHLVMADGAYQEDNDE

[8] = target: CLK1 (Homo sapiens, UniProt P49759)
[9] = target: MAP2K1 (Homo sapiens, UniProt Q02750)
Chain of MAP2K1 (Q02750 whole entry): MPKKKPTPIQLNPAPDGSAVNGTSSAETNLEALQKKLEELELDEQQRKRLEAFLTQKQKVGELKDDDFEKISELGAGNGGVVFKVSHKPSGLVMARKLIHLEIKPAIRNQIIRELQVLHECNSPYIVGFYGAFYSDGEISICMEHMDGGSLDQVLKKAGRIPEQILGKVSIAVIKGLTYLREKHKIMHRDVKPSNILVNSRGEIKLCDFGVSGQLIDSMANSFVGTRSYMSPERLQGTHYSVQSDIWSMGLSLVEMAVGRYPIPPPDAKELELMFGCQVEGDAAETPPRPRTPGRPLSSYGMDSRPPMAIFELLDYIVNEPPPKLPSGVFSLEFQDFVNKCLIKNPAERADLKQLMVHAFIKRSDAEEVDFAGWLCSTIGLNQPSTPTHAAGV

Chain of STK16 (O75716 whole entry): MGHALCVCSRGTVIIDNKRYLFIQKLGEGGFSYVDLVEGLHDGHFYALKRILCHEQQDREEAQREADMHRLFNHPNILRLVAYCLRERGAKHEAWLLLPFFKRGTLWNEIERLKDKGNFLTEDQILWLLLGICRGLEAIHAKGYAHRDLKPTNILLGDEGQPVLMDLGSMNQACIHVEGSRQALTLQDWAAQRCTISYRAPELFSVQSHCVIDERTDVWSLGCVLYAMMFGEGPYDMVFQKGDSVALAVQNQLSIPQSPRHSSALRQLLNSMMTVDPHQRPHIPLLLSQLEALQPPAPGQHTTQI
Chain of CLK1 (P49759 whole entry): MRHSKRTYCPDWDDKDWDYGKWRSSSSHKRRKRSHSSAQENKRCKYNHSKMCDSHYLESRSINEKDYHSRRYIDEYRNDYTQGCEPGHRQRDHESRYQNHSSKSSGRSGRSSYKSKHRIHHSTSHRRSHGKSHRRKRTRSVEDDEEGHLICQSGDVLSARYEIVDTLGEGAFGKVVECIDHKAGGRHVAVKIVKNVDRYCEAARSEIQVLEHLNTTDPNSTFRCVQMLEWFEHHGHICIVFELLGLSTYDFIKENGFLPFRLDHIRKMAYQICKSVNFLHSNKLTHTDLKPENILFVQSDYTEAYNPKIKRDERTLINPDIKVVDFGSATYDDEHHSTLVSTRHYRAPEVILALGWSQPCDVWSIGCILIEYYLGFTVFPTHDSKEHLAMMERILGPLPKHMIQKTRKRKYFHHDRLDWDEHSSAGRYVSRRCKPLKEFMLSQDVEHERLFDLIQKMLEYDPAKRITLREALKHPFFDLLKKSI
Chain of BRAF (P15056 whole entry): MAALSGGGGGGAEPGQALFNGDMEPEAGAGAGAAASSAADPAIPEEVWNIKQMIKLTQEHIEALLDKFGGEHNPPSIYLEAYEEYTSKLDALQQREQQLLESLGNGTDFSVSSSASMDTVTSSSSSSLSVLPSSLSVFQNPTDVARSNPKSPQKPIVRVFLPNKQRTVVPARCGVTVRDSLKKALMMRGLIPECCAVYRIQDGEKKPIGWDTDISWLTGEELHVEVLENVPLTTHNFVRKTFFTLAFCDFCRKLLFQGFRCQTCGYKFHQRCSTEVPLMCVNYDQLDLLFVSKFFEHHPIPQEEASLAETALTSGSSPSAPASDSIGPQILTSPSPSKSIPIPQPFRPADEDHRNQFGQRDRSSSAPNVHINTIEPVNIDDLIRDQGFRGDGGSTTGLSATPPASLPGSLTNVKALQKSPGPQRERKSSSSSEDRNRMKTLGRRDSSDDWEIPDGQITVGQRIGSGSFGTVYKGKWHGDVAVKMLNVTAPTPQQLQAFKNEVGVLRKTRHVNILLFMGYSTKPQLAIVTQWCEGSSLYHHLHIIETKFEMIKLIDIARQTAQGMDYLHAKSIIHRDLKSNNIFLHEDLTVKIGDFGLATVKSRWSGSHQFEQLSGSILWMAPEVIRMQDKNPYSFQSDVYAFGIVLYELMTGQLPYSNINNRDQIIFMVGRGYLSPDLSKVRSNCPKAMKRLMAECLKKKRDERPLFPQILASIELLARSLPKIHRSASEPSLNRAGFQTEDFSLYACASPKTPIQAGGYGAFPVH
Chain of ZAK (Q9NYL2 whole entry): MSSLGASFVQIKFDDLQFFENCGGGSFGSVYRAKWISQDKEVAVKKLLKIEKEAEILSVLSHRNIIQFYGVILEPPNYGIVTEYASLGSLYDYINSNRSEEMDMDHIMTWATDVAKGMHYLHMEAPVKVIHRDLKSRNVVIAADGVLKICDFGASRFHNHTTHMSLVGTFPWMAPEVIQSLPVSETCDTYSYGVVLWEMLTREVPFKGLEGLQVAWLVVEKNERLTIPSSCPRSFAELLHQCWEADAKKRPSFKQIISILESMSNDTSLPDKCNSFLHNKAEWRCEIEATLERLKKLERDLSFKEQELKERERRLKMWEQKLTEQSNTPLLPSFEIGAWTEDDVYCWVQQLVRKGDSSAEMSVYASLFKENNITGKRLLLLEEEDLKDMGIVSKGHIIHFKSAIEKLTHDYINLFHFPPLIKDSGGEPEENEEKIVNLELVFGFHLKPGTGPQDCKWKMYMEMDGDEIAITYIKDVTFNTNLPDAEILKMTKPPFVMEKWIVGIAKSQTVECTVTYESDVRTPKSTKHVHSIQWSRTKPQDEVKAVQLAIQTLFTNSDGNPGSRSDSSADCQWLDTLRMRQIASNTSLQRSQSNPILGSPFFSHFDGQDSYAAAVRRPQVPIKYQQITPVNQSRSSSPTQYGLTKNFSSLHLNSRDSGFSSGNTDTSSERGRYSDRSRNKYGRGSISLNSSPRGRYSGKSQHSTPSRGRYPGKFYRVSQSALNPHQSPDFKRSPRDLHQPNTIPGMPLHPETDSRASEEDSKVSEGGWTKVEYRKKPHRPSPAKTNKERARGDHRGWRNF
Chain of PRKCQ (Q04759 whole entry): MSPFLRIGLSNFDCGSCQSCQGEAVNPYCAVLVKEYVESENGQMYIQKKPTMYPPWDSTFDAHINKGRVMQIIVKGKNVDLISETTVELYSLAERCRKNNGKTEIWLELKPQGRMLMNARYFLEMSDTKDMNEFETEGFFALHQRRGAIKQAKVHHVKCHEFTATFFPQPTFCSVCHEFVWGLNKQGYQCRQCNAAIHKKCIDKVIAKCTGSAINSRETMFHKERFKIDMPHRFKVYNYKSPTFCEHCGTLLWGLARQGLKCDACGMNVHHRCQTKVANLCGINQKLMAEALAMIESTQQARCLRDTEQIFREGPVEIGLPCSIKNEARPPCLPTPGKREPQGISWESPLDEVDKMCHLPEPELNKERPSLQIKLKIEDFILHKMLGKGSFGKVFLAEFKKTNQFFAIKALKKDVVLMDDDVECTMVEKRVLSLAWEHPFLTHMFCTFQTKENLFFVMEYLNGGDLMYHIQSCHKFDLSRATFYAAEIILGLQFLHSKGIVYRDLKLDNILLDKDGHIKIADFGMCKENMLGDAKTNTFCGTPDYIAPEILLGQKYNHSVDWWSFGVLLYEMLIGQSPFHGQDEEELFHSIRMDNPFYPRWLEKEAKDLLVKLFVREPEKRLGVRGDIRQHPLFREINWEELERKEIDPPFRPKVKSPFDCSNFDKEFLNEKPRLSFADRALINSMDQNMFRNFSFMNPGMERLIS
Chain of CSNK2A1 (P68400 whole entry): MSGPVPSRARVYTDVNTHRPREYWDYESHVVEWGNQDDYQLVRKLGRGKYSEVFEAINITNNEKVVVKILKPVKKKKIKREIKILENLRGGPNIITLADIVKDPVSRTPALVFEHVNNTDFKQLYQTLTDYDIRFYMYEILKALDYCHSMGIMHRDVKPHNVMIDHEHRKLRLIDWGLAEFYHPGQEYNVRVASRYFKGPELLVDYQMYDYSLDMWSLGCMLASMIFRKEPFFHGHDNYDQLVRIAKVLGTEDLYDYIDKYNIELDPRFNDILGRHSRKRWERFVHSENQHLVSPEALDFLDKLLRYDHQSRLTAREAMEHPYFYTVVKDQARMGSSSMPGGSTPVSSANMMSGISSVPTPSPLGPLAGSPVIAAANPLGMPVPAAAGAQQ

SMILES	Kd [1]	Kd [2]	Kd [3]	Kd [4]	Kd [5]	Kd [6]	Kd [7]	Kd [8]	Kd [9]
CN1CCN(c2ccc(Nc3ncc(C#N)c(Nc4ccccc4C(N)=O)n3)cc2)CC1.Cl [TCMDC-134116]	135 nM and 190 nM	1570 nM	109 nM	677 nM	858 nM and 650 nM	23.5 nM	404 nM and 333 nM	20.7 nM and 21.1 nM	1630 nM and 1450 nM
Cl.NCC1(c2nc(-c3ccc(Cl)c(O)c3)c(-c3ccncc3)[nH]2)CCCCC1 [TCMDC-141154]		861 nM and 705 nM		6130 nM and 3630 nM	786 nM and 1000 nM				8760 nM
CN(C)CC(O)COc1ccc(Nc2ncc([N+](=O)[O-])c(Nc3ccccc3O)n2)cc1.O=C(O)C(F)(F)F (stereo not drawn) [TCMDC-141399]	551 nM		2550 nM			63.5 nM	4540 nM	171 nM and 119 nM	
